In patent US10160755B2 (Plexxikon Inc., priority 2015, dated 2018):

Key:
FLT3-ITD = target: T1, FLT3-ITD (Homo sapiens, UniProt P36888); experiment: FLT3-ITD biochemical kinase assay (AlphaScreen)
T1 construct: FLT3-ITD; Invitrogen #PV6190
T1 sequence (P36888 1-993): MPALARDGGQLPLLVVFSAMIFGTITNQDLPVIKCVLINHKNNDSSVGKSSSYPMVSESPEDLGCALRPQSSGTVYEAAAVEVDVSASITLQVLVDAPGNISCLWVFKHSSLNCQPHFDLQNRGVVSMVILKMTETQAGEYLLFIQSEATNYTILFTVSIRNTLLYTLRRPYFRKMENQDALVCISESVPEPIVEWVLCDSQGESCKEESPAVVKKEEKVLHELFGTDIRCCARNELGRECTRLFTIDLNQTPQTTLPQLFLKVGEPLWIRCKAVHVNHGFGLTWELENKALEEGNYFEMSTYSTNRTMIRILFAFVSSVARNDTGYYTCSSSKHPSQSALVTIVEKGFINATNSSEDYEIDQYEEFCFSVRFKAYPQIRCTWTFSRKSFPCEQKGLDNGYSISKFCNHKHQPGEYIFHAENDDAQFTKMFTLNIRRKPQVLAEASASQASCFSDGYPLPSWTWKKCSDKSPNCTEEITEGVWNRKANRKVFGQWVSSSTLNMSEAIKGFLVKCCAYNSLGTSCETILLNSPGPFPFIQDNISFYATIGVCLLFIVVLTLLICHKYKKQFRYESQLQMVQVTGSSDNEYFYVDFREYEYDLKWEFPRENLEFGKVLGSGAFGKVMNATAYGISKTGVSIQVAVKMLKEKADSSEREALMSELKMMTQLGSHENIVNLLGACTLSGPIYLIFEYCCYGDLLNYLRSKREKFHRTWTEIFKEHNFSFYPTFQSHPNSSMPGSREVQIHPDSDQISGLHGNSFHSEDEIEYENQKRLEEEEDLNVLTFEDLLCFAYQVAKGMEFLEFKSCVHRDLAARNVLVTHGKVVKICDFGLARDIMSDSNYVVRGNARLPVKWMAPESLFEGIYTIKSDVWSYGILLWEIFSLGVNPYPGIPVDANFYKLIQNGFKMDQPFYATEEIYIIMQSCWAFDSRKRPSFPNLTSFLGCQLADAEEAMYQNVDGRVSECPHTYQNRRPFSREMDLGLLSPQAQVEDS
Summary of the method: (§1)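 First, recombinant FLT3 variant phosphorylates a biotinylated poly(Glu4-Tyr) peptide (30 nM) with ATP at 10 μM (D835Y) or 100 μM (ITD). Streptavidin donor beads are then added for 20 min at room temperature, followed by anti-phosphotyrosine PY20 acceptor beads for 60 min. Signal at 580 nm gives IC50.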

FLT3-D835Y = target: T2, FLT3-D835Y (Homo sapiens, UniProt P36888, D835Y); experiment: FLT3-D835Y biochemical kinase assay (AlphaScreen)
T2 construct: purchased Invitrogen PV3967
T2 sequence (P36888 27-993 D835Y): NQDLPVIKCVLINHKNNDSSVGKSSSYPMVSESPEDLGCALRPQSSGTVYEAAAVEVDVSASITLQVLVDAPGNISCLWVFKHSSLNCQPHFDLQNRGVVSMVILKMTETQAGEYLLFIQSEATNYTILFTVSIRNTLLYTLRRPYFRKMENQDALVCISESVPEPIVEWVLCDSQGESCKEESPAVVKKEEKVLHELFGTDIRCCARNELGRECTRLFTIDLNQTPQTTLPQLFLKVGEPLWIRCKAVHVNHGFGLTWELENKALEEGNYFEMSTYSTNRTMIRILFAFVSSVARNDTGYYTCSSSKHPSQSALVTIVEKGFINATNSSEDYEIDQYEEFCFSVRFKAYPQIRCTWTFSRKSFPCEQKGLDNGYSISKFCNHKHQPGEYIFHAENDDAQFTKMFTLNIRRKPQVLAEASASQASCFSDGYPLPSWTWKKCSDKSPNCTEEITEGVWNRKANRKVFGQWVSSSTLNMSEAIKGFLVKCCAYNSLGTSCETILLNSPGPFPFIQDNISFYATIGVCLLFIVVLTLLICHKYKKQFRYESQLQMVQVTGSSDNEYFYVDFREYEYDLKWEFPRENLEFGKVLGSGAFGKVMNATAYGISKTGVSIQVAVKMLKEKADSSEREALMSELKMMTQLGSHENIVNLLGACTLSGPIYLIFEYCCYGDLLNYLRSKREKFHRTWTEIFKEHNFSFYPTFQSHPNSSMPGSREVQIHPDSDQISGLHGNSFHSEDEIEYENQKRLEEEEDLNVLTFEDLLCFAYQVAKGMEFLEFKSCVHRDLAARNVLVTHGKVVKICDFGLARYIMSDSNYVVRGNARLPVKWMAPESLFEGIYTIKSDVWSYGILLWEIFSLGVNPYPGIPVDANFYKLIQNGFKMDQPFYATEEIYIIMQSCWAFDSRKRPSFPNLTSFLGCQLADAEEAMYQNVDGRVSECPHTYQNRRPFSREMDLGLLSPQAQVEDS
Summary of the method: as §1

SMILES | IC50 (FLT3-ITD) | IC50 (FLT3-D835Y)
CC(C)(C)n1cnc2ccc(-c3c[nH]c4ncc(-c5ccc(F)c(C#N)c5)cc34)cc21 [P-207, 5-[3-(3-tert-butylbenzimidazol-5-yl)-1H-pyrrolo[2,3-b]pyridin-5-yl]-2-fluoro-benzonitrile] | 0.0001 to 1 µM | 0.0001 to 1 µM
CCCS(=O)(=O)Nc1cccc(-c2cnc3[nH]cc(-c4ccc5ncn(C)c5c4)c3n2)c1 [P-155, N-[3-[7-(3-methylbenzimidazol-5-yl)-5H-pyrrolo[2,3-b]pyrazin-2-yl]phenyl]propane-1-sulfonamide] | 0.0001 to 1 µM | 0.0001 to 1 µM
CC(C)(C)n1cnc2ccc(-c3c[nH]c4ncc(-c5cnn(C6CC6)c5)nc34)cc21 [P-350, 7-(3-tert-butylbenzimidazol-5-yl)-2-(1-cyclopropylpyrazol-4-yl)-5H-pyrrolo[2,3-b]pyrazine] | 0.0001 to 1 µM | 0.0001 to 1 µM
CC(C)S(=O)(=O)Nc1cccc(-c2cnc3[nH]cc(-c4ccc5ncn(C)c5c4)c3n2)c1 [P-152, N-[3-[7-(3-methylbenzimidazol-5-yl)-5H-pyrrolo[2,3-b]pyrazin-2-yl]phenyl]propane-2-sulfonamide] | 0.0001 to 1 µM | 0.0001 to 1 µM
COc1cnc2[nH]cc(-c3ccc4ncn(Cc5ccc(Cl)cc5)c4c3)c2c1 [P-111, 1-[(4-chlorophenyl)methyl]-6-(5-methoxy-1H-pyrrolo[2,3-b]pyridin-3-yl)benzimidazole] | 0.0001 to 1 µM | 0.0001 to 1 µM
FC(F)(F)Oc1cccc(-c2cnc3[nH]cc(-c4ccc5ncn(C6CCCNC6)c5c4)c3c2)c1 (stereo not drawn) [P-203, 1-(3-piperidyl)-6-[5-[3-(trifluoromethoxy)phenyl]-1H-pyrrolo[2,3-b]pyridin-3-yl]benzimidazole] | 0.0001 to 1 µM | 0.0001 to 1 µM
CC(C)(C)n1cnc2ccc(-c3c[nH]c4ncc(NS(=O)(=O)c5cccc(OC(F)(F)F)c5)cc34)cc21 [P-213, N-[3-(3-tert-butylbenzimidazol-5-yl)-1H-pyrrolo[2,3-b]pyridin-5-yl]-3-(trifluoromethoxy)benzenesulfonamide] | 0.0001 to 1 µM | 1 to 10 µM
CC(C)S(=O)(=O)Nc1cccc(-c2cnc3[nH]cc(-c4ccc5ncn(C(C)(C)C)c5c4)c3c2)c1 [P-214, N-[3-[3-(3-tert-butylbenzimidazol-5-yl)-1H-pyrrolo[2,3-b]pyridin-5-yl]phenyl]propane-2-sulfonamide] | 0.0001 to 1 µM | 0.0001 to 1 µM
COc1cc(-c2cnc3[nH]cc(-c4ccc5ncn(C6CCCNC6)c5c4)c3n2)ccn1 (stereo not drawn) [P-136, 2-(2-methoxypyridin-4-yl)-7-(1-(piperidin-3-yl)-1H-benzo[d]imidazol-6-yl)-5H-pyrrolo[2,3-b]pyrazine] | 0.0001 to 1 µM | 0.0001 to 1 µM
COc1cccc(-c2cnc3[nH]cc(-c4ccc5ncn(C)c5c4)c3n2)c1 [P-145, 2-(3-methoxyphenyl)-7-(3-methylbenzimidazol-5-yl)-5H-pyrrolo[2,3-b]pyrazine] | 0.0001 to 1 µM | 0.0001 to 1 µM
Cc1cc(-c2cnc3[nH]cc(-c4ccc5ncn(C(C)(C)C)c5c4)c3n2)cnc1C#N [P-355, 5-[7-(3-tert-butylbenzimidazol-5-yl)-5H-pyrrolo[2,3-b]pyrazin-2-yl]-3-methyl-pyridine-2-carbonitrile] | 0.0001 to 1 µM | 0.0001 to 1 µM
COc1cc(-c2cnc3[nH]cc(-c4ccc5c(c4)N(CC(F)(F)F)CCO5)c3n2)ccn1 [P-188, 6-(2-(2-methoxypyridin-4-yl)-5H-pyrrolo[2,3-b]pyrazin-7-yl)-4-(2,2,2-trifluoroethyl)-3,4-dihydro-2H-benzo[b][1,4]oxazine] | 0.0001 to 1 µM | 0.0001 to 1 µM
Fc1ccc(-n2cnc3ccc(-c4c[nH]c5ncc(-c6cccc(OC(F)(F)F)c6)cc45)cc32)cc1Cl [P-211, 1-(3-chloro-4-fluoro-phenyl)-6-[5-[3-(trifluoromethoxy)phenyl]-1H-pyrrolo[2,3-b]pyridin-3-yl]benzimidazole] | 0.0001 to 1 µM | 0.0001 to 1 µM
CC(C)(C)n1cnc2ccc(-c3c[nH]c4ncc(-c5cnc(C6CC6)nc5)cc34)cc21 [P-340, 1-tert-butyl-6-[5-(2-cyclopropylpyrimidin-5-yl)-1H-pyrrolo[2,3-b]pyridin-3-yl]benzimidazole] | 0.0001 to 1 µM | 0.0001 to 1 µM
CCS(=O)(=O)Nc1cccc(-c2cnc3[nH]cc(-c4ccc5ncn(C)c5c4)c3n2)c1 [P-154, N-[3-[7-(3-methylbenzimidazol-5-yl)-5H-pyrrolo[2,3-b]pyrazin-2-yl]phenyl]ethanesulfonamide] | 0.0001 to 1 µM | 0.0001 to 1 µM
N#Cc1cccc(-c2cnc3[nH]cc(-c4ccc5ncn(-c6ccc(F)cc6)c5c4)c3c2)c1 [P-201, 3-[3-[3-(4-fluorophenyl)benzimidazol-5-yl]-1H-pyrrolo[2,3-b]pyridin-5-yl]benzonitrile] | 0.0001 to 1 µM | 0.0001 to 1 µM
Cn1cnc2ccc(-c3c[nH]c4ncc(C#Cc5ccccc5)cc34)cc21 [P-139, 1-methyl-6-[5-(2-phenylethynyl)-1H-pyrrolo[2,3-b]pyridin-3-yl]benzimidazole] | 0.0001 to 1 µM | 0.0001 to 1 µM
O=C(NC1CC1)c1cccc(-c2cnc3[nH]cc(-c4ccc5ncsc5c4)c3n2)c1 [P-162, 3-[7-(1,3-benzothiazol-6-yl)-5H-pyrrolo[2,3-b]pyrazin-2-yl]-N-cyclopropyl-benzamide] | 0.0001 to 1 µM | 0.0001 to 1 µM
COc1cc(-c2cnc3[nH]cc(-c4ccc5ncn(C)c5c4)c3n2)cc(OC)n1 [P-157, 2-(2,6-dimethoxy-4-pyridyl)-7-(3-methylbenzimidazol-5-yl)-5H-pyrrolo[2,3-b]pyrazine] | 0.0001 to 1 µM | 0.0001 to 1 µM
CC(C)(C)n1cnc2ccc(-c3c[nH]c4ncc(-c5cnc(C#N)c(Cl)c5)nc34)cc21 [P-361, 5-[7-(3-tert-butylbenzimidazol-5-yl)-5H-pyrrolo[2,3-b]pyrazin-2-yl]-3-chloro-pyridine-2-carbonitrile] | 0.0001 to 1 µM | 0.0001 to 1 µM
c1cc(-c2cnc3[nH]cc(-c4ccc5ncsc5c4)c3n2)cc(N2CCOCC2)c1 [P-163, 4-[3-[7-(1,3-benzothiazol-6-yl)-5H-pyrrolo[2,3-b]pyrazin-2-yl]phenyl]morpholine] | 0.0001 to 1 µM | 0.0001 to 1 µM
Cn1cnc2ccc(-c3c[nH]c4ncc(-c5cccc(S(=O)(=O)N6CCCC6)c5)nc34)cc21 [P-156, 7-(3-methylbenzimidazol-5-yl)-2-(3-pyrrolidin-1-ylsulfonylphenyl)-5H-pyrrolo[2,3-b]pyrazine] | 0.0001 to 1 µM | 0.0001 to 1 µM
Cn1cnc2ccc(-c3c[nH]c4ncc(-c5ccc(F)c(C#N)c5)cc34)cc21 [P-141, 2-fluoro-5-[3-(3-methylbenzimidazol-5-yl)-1H-pyrrolo[2,3-b]pyridin-5-yl]benzonitrile] | 0.0001 to 1 µM | 0.0001 to 1 µM
CC(C)N1CCOc2ccc(-c3c[nH]c4ncc(C5=CCN(C(=O)C6CC6)C5)nc34)cc21 [P-189, cyclopropyl-[3-[7-(4-isopropyl-2,3-dihydro-1,4-benzoxazin-6-yl)-5H-pyrrolo[2,3-b]pyrazin-2-yl]-2,5-dihydropyrrol-1-yl]methanone] | 0.0001 to 1 µM | 0.0001 to 1 µM
